PubChem BioAssay (NCI)
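48-hour exposure; five concentrations; linearly interpolated endpoints. GI50 marks 50% less growth. TGI: concentration producing complete growth inhibition.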

Key:
Test in all cases: growth of human tumour cells (NCI), 48 h
MCF7 breast = test system: MCF7 breast
UACC-62 melanoma = test system: UACC-62 melanoma
NCI/ADR-RES ovarian = test system: NCI/ADR-RES ovarian
SK-MEL-5 melanoma = test system: SK-MEL-5 melanoma
MDA-MB-231 breast = test system: MDA-MB-231 breast
UACC-257 melanoma = test system: UACC-257 melanoma
HOP-92 NSCLC = test system: HOP-92 NSCLC
MOLT-4 leukemia = test system: MOLT-4 leukemia
RPMI-8226 leukemia = test system: RPMI-8226 leukemia
MALME-3M melanoma = test system: MALME-3M melanoma

SMILES	GI50 (MCF7 breast)	TGI (MCF7 breast)	GI50 (UACC-62 melanoma)	TGI (UACC-62 melanoma)	GI50 (NCI/ADR-RES ovarian)	TGI (NCI/ADR-RES ovarian)	GI50 (SK-MEL-5 melanoma)	TGI (SK-MEL-5 melanoma)	GI50 (MDA-MB-231 breast)	TGI (MDA-MB-231 breast)	GI50 (UACC-257 melanoma)	TGI (UACC-257 melanoma)	TGI (HOP-92 NSCLC)	GI50 (MOLT-4 leukemia)	TGI (MOLT-4 leukemia)	GI50 (RPMI-8226 leukemia)	TGI (RPMI-8226 leukemia)	TGI (MALME-3M melanoma)	GI50 (HOP-92 NSCLC)	GI50 (MALME-3M melanoma)
S=c1nc(-c2ccccc2)oc(=NC2CCCCC2)n1C1CCCCC1	3.2 µM	12.2 µM	5.92 µM	21 µM	5.01 µM	23.4 µM	2.62 µM	9.87 µM	3.69 µM	15.9 µM	2.31 µM	5.98 µM	0.079 µM	1.54 µM	6.01 µM	2.69 µM	6.51 µM			
CCC1C(C)c2c([nH]c3ccccc23)C2C(=O)N(c3ccccc3)C(=O)C21 (stereo not drawn)				21.9 µM				28.8 µM							49.3 µM		40.9 µM	30.4 µM		
COc1ccc2c(c1)CCC1C2CC[C@@]2(C)C1CC[C@@]2(O)CNC(=O)/C=C/c1ccc(O)c(OC)c1 (stereo partly drawn)	7.41 µM	> 100 µM	12.1 µM	34.9 µM	12.5 µM	83.4 µM	18.2 µM	46.6 µM			28 µM	80 µM	60 µM			6.47 µM	53.9 µM	> 100 µM	14.9 µM	21.3 µM
COc1ccc(C2OC(=O)c3c2ccc2ccccc32)c(C)c1 (stereo not drawn)		10.1 µM		90.5 µM				6.82 µM		> 100 µM		80.5 µM	80.1 µM		37 µM		60.9 µM	17.3 µM		
C=C(C=O)C1CC(=O)C(C(=O)OC)[C@@H]2O[C@@](C)(CC2=O)C[C@@H]2OC(=O)[C@]3(O[C@@H]23)[C@@H](C(=O)OC)C1 (stereo partly drawn)	11.1 µM	28 µM	18.1 µM	44.8 µM	46.4 µM	> 100 µM	17 µM	38.5 µM	22.1 µM	57.5 µM	10.2 µM	28.6 µM	37.9 µM	4.2 µM	> 100 µM	4.16 µM	21.8 µM		16.5 µM	
CCN1CCN(c2nc(NNC(=O)Cc3ccccc3)nc(N3CCN(C(c4ccccc4)c4ccccc4)CC3)n2)CC1			1.71 µM	3.46 µM	3.37 µM	14 µM	1.71 µM	3.12 µM	1.99 µM	3.69 µM	1.83 µM	3.79 µM	4.7 µM	2.63 µM	8.39 µM	1.79 µM	4.31 µM	3.29 µM	1.89 µM	1.64 µM
CCOC(=O)c1sc(-c2ccc(OS(=O)(=O)c3cccs3)c(C=O)c2)nc1C	1.88 µM	4.51 µM	1.43 µM	2.92 µM	1.8 µM	6.17 µM	1.56 µM	3 µM			2.51 µM	6.35 µM	4.24 µM	1.47 µM	4.02 µM	1.01 µM	4.72 µM	5.69 µM	1.36 µM	2.22 µM
Nc1[nH]c(=O)ncc1F		> 100 µM		> 100 µM		> 100 µM		> 100 µM				> 100 µM	> 100 µM		> 100 µM		> 100 µM	> 100 µM		
O=C(c1cc(O)ccc1O)c1ccccc1C(Cl)(Cl)Cl				> 100 µM				> 100 µM				> 100 µM	> 100 µM		> 100 µM		> 100 µM	> 100 µM		
CC(=O)NS(=O)(=O)c1ccc(NC(=O)COC(=O)c2cccc3c(=O)c4ccccc4[nH]c23)cc1				> 100 µM				> 100 µM				> 100 µM			> 100 µM		> 100 µM	> 100 µM		
CC1=NNC(=NCCN(C)C)C/C1=C/c1ccccc1Cl				> 100 µM				> 100 µM				98 µM						> 100 µM		
Cc1ccc(S(=O)(=O)N(/N=C(\N)Oc2ccc(Cl)cc2)C(=N)Oc2ccc(Cl)cc2)cc1				> 100 µM				> 100 µM				> 100 µM	> 100 µM		> 100 µM			> 100 µM		
O=C(c1ccccc1)C1C(C(=O)c2ccccc2)N1Cc1ccccc1 (stereo not drawn)				70.8 µM		> 100 µM		36.7 µM		> 100 µM		> 100 µM	> 100 µM		> 100 µM		> 100 µM	77.3 µM		
COc1ccc(SC2c3cc(OC)c(OC)cc3Oc3nc(N)c(C#N)c(N)c32)cc1 (stereo not drawn)	0.454 µM	2.1 µM	0.449 µM	1.74 µM			1.5 µM	2.82 µM	1.43 µM	2.81 µM	1.87 µM	3.32 µM	2.72 µM	0.315 µM	1.6 µM	0.354 µM	1.81 µM	2.89 µM	1.24 µM	1.46 µM
Cc1nc(C)c(C(=O)Nc2cccc3c2C(=O)NC3=O)cc1C(=O)Nc1cccc2c1C(=O)NC2=O				> 100 µM				> 100 µM				> 100 µM	> 100 µM		> 100 µM		> 100 µM	> 100 µM		
Nc1nc2c(ncn2C2OC(CO)C(O)C2N)c(=O)[nH]1 (stereo not drawn)				> 100 µM								> 100 µM	> 100 µM		> 100 µM			> 100 µM		
N/C(=N\NS(=O)(=O)c1ccccc1)Oc1ccc(Cl)cc1				> 100 µM				> 100 µM				> 100 µM	> 100 µM		> 100 µM		> 100 µM	> 100 µM		
CC1(C)N=C(N)N=C(N)N1c1cccc(C#N)c1	3.85 µM	> 100 µM	3.84 µM	> 100 µM	75.9 µM	> 100 µM	8.1 µM	> 100 µM	> 100 µM	> 100 µM	11.7 µM	> 100 µM		3.21 µM	> 100 µM	62.9 µM	> 100 µM	> 100 µM		16.7 µM
Cc1cnc[nH]c1=O				> 100 µM				> 100 µM				> 100 µM			> 100 µM		> 100 µM	> 100 µM		
